{"source": "paper PMC8617681", "about": "(Pharmaceuticals, 2021)", "key": {"[1]": {"conditions": "patients; cited from earlier work"}, "[2]": {"test_system": "RET-mutant medullary thyroid cancer", "conditions": "clinical phase 1 study; cited from earlier work"}, "human OATP1B1": {"biological_target": "T1, human OATP1B1 (Homo sapiens, UniProt Q9Y6L6)", "T1 construct": "Werner Siegmund and Dr. Markus Keiser (University of Greifswald); host or cells: HEK293", "T1 sequence (Q9Y6L6 1-691)": "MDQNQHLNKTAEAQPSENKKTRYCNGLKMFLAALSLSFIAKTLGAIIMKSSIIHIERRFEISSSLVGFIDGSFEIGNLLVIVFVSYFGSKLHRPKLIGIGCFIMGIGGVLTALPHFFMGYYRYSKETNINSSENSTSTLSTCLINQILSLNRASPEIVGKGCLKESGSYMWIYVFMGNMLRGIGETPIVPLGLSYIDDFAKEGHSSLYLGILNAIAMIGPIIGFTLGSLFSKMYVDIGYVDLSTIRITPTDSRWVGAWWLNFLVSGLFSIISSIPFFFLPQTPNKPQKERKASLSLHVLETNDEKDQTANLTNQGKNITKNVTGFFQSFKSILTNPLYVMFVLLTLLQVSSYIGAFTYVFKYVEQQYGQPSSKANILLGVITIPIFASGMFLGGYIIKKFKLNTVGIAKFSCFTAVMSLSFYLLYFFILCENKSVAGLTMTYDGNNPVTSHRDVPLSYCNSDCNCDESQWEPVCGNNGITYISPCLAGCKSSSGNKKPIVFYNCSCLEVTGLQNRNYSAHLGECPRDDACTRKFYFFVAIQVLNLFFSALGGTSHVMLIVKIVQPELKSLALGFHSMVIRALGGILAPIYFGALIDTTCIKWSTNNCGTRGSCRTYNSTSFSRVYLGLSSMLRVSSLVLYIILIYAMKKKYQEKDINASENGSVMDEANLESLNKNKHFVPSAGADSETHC", "experiment": "Cellular uptake in OATP1B1-overexpressing HEK293 cells", "format": "in vitro ADME", "conditions": "5 µM, 2.5 min incubation, HEK293 OATP1B1", "procedure": "HEK293 cells, vector-transfected or human (h)SLCO1A2, hSLCO1B1 or hSLCO1B3 cDNA-transfected were kind gifts from Prof. Werner Siegmund and Dr. Markus Keiser (University of Greifswald, Greifswald, Germany). All the HEK293 cell lines were maintained in DMEM supplemented with 10% (v/v) FBS, 1% penicillin–streptomycin mix at 37 °C in 5% (v/v) CO2 and 500 μg/mL G418. Cells were first seeded in 12-well plates [coated with 50 mg/L poly (l-lysine) and 50 mg/L poly (l-ornithine)] at a density of 1.0 × 10^5 cells/well. For the uptake study, in order to induce the expression of OATP transporters, the cell culture medium was replaced with culture medium supplemented with 5 mM sodium butyrate 24 h before performing the uptake assay.\nThe uptake transport study was performed as described previously. […] The Krebs–Henseleit solution was prepared from Krebs–Henseleit-buffer modified powder and supplemented with 25 mM NaHCO3 and 2.5 mM CaCl2 adjusted to pH 6.4 with 1 M HCL. At 2.5 min, the incubation buffer was removed, and uptake was terminated by adding 1 mL of ice-cold Krebs–Henseleit buffer, followed by two times washing with 1 mL of ice-cold Krebs–Henseleit buffer. […] The cellular protein amount was determined by the Bradford method using 10 μL of the cell lysates with bovine serum albumin as a standard."}, "[3]": {"experiment": "8 h pharmacokinetic study in wild-type, Cyp3a-/- and Cyp3aXAV mice", "conditions": "mouse, in vivo, po, 10 mg/kg; for concentration at 8 h / AUC(0-t) / Cmax / Tmax / SIC percentage of dose: female; for SIC percentage of dose: 8 h", "procedure": "Many drugs and prodrugs are metabolized by CYP3A, which can therefore restrict their oral exposure.\nMice were housed and handled according to institutional guidelines complying with Dutch and EU legislation. All experimental animal protocols were evaluated and approved by the institutional animal care and use committee. Wild-type, Abcb1a/1b^-/-, Abcg2^-/-, Abcb1a/1b; Abcg2^-/-, Slco1a/1b^-/- male mice, and Cyp3a^-/- and Cyp3aXAV female mice, all of a >99% FVB genetic background, were used between 9 and 16 weeks of age. […] All experimental animal protocols (WP9450, 9669, 9760), including power calculations, designed under the nationally approved DEC/CCD project AVD301002016595, were evaluated and approved by the institutional animal care and use committee of The Netherlands Cancer Institute. […]\nFor the 4 h transporter experiments, tail-vein blood samples were collected at 0.125, 0.25, 0.5, 1, and 2 h time points after oral administration, respectively. For the CYP3A 8 h experiments, tail-vein blood sampling was performed at 0.25, 0.5, 1, 2, and 4 h, respectively. While for elacridar inhibition experiments, tail-vein blood samples were collected at 0.125, 0.25, 0.5, and 1 h time points after oral administration, respectively. Blood sample collection was performed using microvettes containing dipotassium EDTA. At the last time point in each experiment (2, 4 or 8 h), mice were anesthetized with 5% isoflurane and blood was collected by cardiac puncture. Blood samples were collected in Eppendorf tubes containing heparin as an anticoagulant. The mice were then sacrificed by cervical dislocation and brain, liver, kidney, lung, small intestine and testis were rapidly removed. Plasma was isolated from the blood by centrifugation at 9000× g for 6 min at 4 °C, and the plasma fraction was collected and stored at −30 °C until analysis. Organs were homogenized with 4% (w/v) bovine serum albumin and stored at −30 °C until analysis.\nPharmacokinetic parameters were calculated by noncompartmental methods using the PK solver software. The area under the plasma concentration–time curve (AUC) was calculated using the trapezoidal rule, without extrapolating to infinity. The peak plasma concentration (Cmax) and the time of maximum plasma concentration (Tmax) were estimated from the original (individual mouse) data. One-way analysis of variance (ANOVA) was used when multiple groups were compared and the Tukey post hoc correction was used to accommodate multiple testing. The two-sided unpaired Student’s t-test was used when treatments or differences between two specific groups were compared using the software GraphPad Prism 8 (GraphPad Software Inc., La Jolla, CA, USA). All the data were log-transformed before statistical tests were applied. Differences were considered statistically significant when p < 0.05. All data are presented as geometric mean ± SD."}}}
{"smiles": "COc1ccc(CN2C3CC2CN(c2ccc(-c4cc(OCC(C)(C)O)cn5ncc(C#N)c45)cn2)C3)cn1", "note": "[selpercatinib]", "values": [{"measurement": "AUC0–24h", "setting": "[1]", "result": "51,600 ng/mL*h"}, {"measurement": "average Cmax", "setting": "[1]", "result": 2.98, "unit": "µg/mL"}, {"measurement": "overall response rate", "setting": "[2]", "result": 45, "unit": "%"}, {"measurement": "uptake compared to vector control cells", "setting": "human OATP1B1", "result": "did not observe any significant increase in the uptake"}, {"measurement": "concentration at 8 h", "setting": "[3]; Cyp3a-/- (>99% FVB genetic background), CLiver", "result": "7900 ± 1270", "unit": "ng/g"}, {"measurement": "concentration at 8 h", "setting": "[3]; Cyp3a-/- (>99% FVB genetic background), CSI (small intestine tissue concentration)", "result": "6380 ± 930", "unit": "ng/g"}, {"measurement": "concentration at 8 h", "setting": "[3]; Cyp3a-/- (>99% FVB genetic background), Cbrain", "result": "86.2 ± 24.2", "unit": "ng/g"}, {"measurement": "concentration at 8 h", "setting": "[3]; Cyp3aXAV (>99% FVB genetic background), CLiver", "result": "4390 ± 755", "unit": "ng/g"}, {"measurement": "concentration at 8 h", "setting": "[3]; Cyp3aXAV (>99% FVB genetic background), CSI (small intestine tissue concentration)", "result": "5030 ± 347", "unit": "ng/g"}, {"measurement": "AUC(0-t)", "setting": "[3]; FVB, Cyp3a-/-", "result": 72.2, "unit": "µg·h/mL"}, {"measurement": "Cmax", "setting": "[3]; FVB, Cyp3a-/-", "result": 12.3, "unit": "µg/mL"}, {"measurement": "Tmax", "setting": "[3]; FVB, Cyp3a-/-", "result": "1.4 ± 1.3", "unit": "h"}, {"measurement": "SIC percentage of dose", "setting": "[3]; FVB, Cyp3a-/-", "result": "1.4 ± 0.6", "unit": "%"}, {"measurement": "concentration at 8 h", "setting": "[3]; FVB, Cyp3a-/-, CSIC (small intestine contents concentration)", "result": 44900, "unit": "ng/g"}, {"measurement": "AUC(0-t)", "setting": "[3]; FVB, wild-type", "result": 52.3, "unit": "µg·h/mL"}, {"measurement": "Cmax", "setting": "[3]; FVB, wild-type", "result": "8.56 ± 1.3", "unit": "µg/mL"}, {"measurement": "Tmax", "setting": "[3]; FVB, wild-type", "result": "1.5 ± 1.3", "unit": "h"}, {"measurement": "SIC percentage of dose", "setting": "[3]; FVB, wild-type", "result": "2.5 ± 0.9", "unit": "%"}, {"measurement": "concentration at 8 h", "setting": "[3]; FVB, wild-type, CSIC (small intestine contents concentration)", "result": 83900, "unit": "ng/g"}, {"measurement": "concentration at 8 h", "setting": "[3]; FVB, wild-type, Cbrain", "result": "82.4 ± 16.8", "unit": "ng/g"}, {"measurement": "AUC(0-t)", "setting": "[3]", "result": 45.8, "unit": "µg·h/mL"}, {"measurement": "Cmax", "setting": "[3]", "result": "9.48 ± 0.548", "unit": "µg/mL"}, {"measurement": "Tmax", "setting": "[3]", "result": "0.29 ± 0.1", "unit": "h"}, {"measurement": "SIC percentage of dose", "setting": "[3]", "result": "1.5 ± 0.5", "unit": "%"}, {"measurement": "concentration at 8 h", "setting": "[3]; CSIC (small intestine contents concentration)", "result": 48500, "unit": "ng/g"}, {"measurement": "concentration at 8 h", "setting": "[3]; Cbrain", "result": "51 ± 15.2", "unit": "ng/g"}, {"measurement": "concentration at 8 h", "setting": "[3]; wild-type (>99% FVB genetic background), CLiver", "result": "8260 ± 1620", "unit": "ng/g"}, {"measurement": "concentration at 8 h", "setting": "[3]; wild-type (>99% FVB genetic background), CSI (small intestine tissue concentration)", "result": "7300 ± 1120", "unit": "ng/g"}, {"measurement": "abnormal external behavior (acute toxicity)", "setting": "[3]", "result": "did not observe any abnormal external behavior"}]}
